# Data taken from patent US11479551B2, “MTA-cooperative PRMT5 inhibitors” (Mirati Therapeutics, Inc., priority 2019, dated 2022).
# Where “and” joins values, the source holds several entries; their conditions need not be identical. Equal values may be shown once.
# How the values were obtained:
# PRMT5/MEP50 complex [1] = target: T1, PRMT5/MEP50 complex (Homo sapiens (Human), UniProt O14744); assay: PRMT5:MEP50 HotSpot Assay (full-length histone H2A substrate, plus and minus MTA); assay type: biochemical
# T1 sequence (O14744 2-637): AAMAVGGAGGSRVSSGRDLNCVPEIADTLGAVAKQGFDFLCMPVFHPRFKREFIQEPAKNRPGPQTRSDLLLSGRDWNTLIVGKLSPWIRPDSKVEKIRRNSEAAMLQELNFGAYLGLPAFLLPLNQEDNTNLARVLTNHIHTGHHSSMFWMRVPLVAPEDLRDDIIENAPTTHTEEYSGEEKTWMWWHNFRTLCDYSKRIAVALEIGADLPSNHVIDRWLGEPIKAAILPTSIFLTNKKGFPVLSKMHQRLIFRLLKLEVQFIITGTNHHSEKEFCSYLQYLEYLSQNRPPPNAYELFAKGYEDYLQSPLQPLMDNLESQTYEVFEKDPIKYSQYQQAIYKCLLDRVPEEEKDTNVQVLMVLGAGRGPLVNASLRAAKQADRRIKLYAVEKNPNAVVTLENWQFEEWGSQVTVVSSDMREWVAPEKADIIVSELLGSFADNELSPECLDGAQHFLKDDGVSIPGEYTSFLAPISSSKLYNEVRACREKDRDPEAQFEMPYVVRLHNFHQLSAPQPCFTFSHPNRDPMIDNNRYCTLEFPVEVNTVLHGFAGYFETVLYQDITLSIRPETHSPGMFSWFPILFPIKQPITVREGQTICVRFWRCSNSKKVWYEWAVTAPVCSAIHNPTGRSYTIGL
# T1 sequence (Q9BQA1 2-342 partner): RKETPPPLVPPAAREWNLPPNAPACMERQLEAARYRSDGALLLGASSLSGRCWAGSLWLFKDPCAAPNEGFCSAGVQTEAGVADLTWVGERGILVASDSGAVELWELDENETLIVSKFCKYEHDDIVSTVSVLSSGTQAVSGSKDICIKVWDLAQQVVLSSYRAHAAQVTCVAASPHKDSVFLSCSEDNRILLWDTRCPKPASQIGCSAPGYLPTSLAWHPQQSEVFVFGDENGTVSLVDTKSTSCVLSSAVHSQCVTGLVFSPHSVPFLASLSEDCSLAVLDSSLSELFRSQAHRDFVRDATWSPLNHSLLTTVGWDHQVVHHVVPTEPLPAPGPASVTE
# Method: (§1) The PRMT5 inhibitory activity of compounds of the present invention was determined using either a PRMT5:MEP50 FlashPlate Assay (Reaction Biology Corporation) or a PRMT5:MEP50 HotSpot Assay (Reaction Biology Corporation).
# The assay uses recombinant full-length histone H2A as the PRMT5 substrate. […] The reaction was stopped and transferred to filter paper for detection. The amount of tritiated H2A in each sample was determined using a scintillation counter.
# PRMT5/MEP50 complex [2] = target: T1, PRMT5/MEP50 complex; assay: PRMT5:MEP50 FlashPlate Assay (histone H4 peptide substrate, plus and minus MTA); assay type: biochemical
# Method: as §1
# 1. PRMT5:MEP50 FlashPlate Assay
# [3] = IC50 + 2 μM MTA, in the presence of 2 μM MTA
# [4] = in the absence of MTA, read-out: IC50
# [5] = IC50 + 2 μM MTA (nM), in the presence of 2 μM MTA
IC50 (PRMT5/MEP50 complex [1]; [3]),SMILES,other results
1650 nM,"Cn1ncc(-c2ccc3c(=O)[nH]nc(CN)c3c2)c1-c1ccccc1C(F)F [Example 4-153, 4-(aminomethyl)-6-(5-(2-(difluoromethyl)phenyl)-1-methyl-1H-pyrazol-4-yl)phthalazin-1(2H)-one]",
3280 nM,"Cn1ncc(-c2ccc3c(=O)[nH]nc(CN)c3c2)c1OCc1ccccc1Cl [Example 4-154, 4-(aminomethyl)-6-(5-((2-chlorobenzyl)oxy)-1-methyl-1H-pyrazol-4-yl)phthalazin-1(2H)-one]",
3460 nM,"Cn1ncc(-c2ccc3c(=O)[nH]nc(CN)c3c2)c1OCc1cccc(Cl)c1 [Example 4-155, 4-(aminomethyl)-6-(5-((3-chlorobenzyl)oxy)-1-methyl-1H-pyrazol-4-yl)phthalazin-1(2H)-one]",
9130 nM,"Cn1ncc(-c2ccc3c(=O)[nH]nc(CN)c3c2)c1OCc1ccc(Cl)cc1 [Example 4-156, 4-(aminomethyl)-6-(5-((4-chlorobenzyl)oxy)-1-methyl-1H-pyrazol-4-yl)phthalazin-1(2H)-one]",
842 nM,"COc1ccc(Oc2cncc(-c3ccc4c(=O)[nH]nc(CN)c4c3)c2)c(OC)c1 [Example 4-162, 4-(aminomethyl)-6-(5-(2,4-dimethoxyphenoxy)pyridin-3-yl)phthalazin-1(2H)-one]",
2410 nM,"Cn1ncc(-c2ccc3c(=O)[nH]nc(CN)c3c2)c1-c1cc(Cl)cc(Cl)c1C#N [Example 4-165, 2-(4-(4-(aminomethyl)-1-oxo-1,2-dihydrophthalazin-6-yl)-1-methyl-1H-pyrazol-5-yl)-4,6-dichlorobenzonitrile]",
4510 nM,"Cn1ncc(-c2ccc3c(=O)[nH]nc(CN)c3c2)c1-c1cc2cccnc2cc1C#N [Example 4-166, 6-(4-(4-(aminomethyl)-1-oxo-1,2-dihydrophthalazin-6-yl)-1-methyl-1H-pyrazol-5-yl)quinoline-7-carbonitrile]",
6620 nM,"Cn1ncc(-c2ccc3c(=O)[nH]nc(CN)c3c2)c1-c1cc2ncccc2cc1C#N [Example 4-167, 7-(4-(4-(aminomethyl)-1-oxo-1,2-dihydrophthalazin-6-yl)-1-methyl-1H-pyrazol-5-yl)quinoline-6-carbonitrile]",
1370 nM,"COc1cc(Cl)cc(-c2c(-c3ccc4c(=O)[nH]nc(CN)c4c3)cnn2C)c1C#N [Example 4-168, 2-(4-(4-(aminomethyl)-1-oxo-1,2-dihydrophthalazin-6-yl)-1-methyl-1H-pyrazol-5-yl)-4-chloro-6-methoxybenzonitrile]",
728 nM,"COc1ccc(-c2c(-c3ccc4c(=O)[nH]nc(CN)c4c3)cnn2C)c(C#N)c1Cl [Example 4-170, 6-(4-(4-(aminomethyl)-1-oxo-1,2-dihydrophthalazin-6-yl)-1-methyl-1H-pyrazol-5-yl)-2-chloro-3-methoxybenzonitrile]",
4440 nM,"CN(C)c1c(-c2ccc3c(=O)[nH]nc(CN)c3c2)cnn1C [Example 4-171, 4-(aminomethyl)-6-(5-(dimethylamino)-1-methyl-1H-pyrazol-4-yl)phthalazin-1(2H)-one]",

# Further lines, the molecule ahead of its results:
SMILES,IC50 (PRMT5/MEP50 complex [1]; [3]),other results
"CCOc1ccn2ncc(-c3ccc4c(=O)[nH]nc(CN)c4c3)c2c1 [Example 4-112, 4-(aminomethyl)-6-(5-ethoxypyrazolo[1,5-a]pyridin-3-yl)phthalazin-1(2H)-one]",1020 nM,
"CC(C)Oc1ccn2ncc(-c3ccc4c(=O)[nH]nc(CN)c4c3)c2c1 [Example 4-113, 4-(aminomethyl)-6-(5-isopropoxypyrazolo[1,5-a]pyridin-3-yl)phthalazin-1(2H)-one]",561 nM,
"NCc1n[nH]c(=O)c2ccc(-c3cnn4ccc(Oc5ccccc5)cc34)cc12 [Example 4-114, 4-(aminomethyl)-6-(5-phenoxypyrazolo[1,5-a]pyridin-3-yl)phthalazin-1(2H)-one]",486 nM,
"Cn1ncc(-c2ccc3c(=O)[nH]nc(CN)c3c2)c1OCc1ccccc1 [Example 4-115, 4-(aminomethyl)-6-(5-(benzyloxy)-1-methyl-1H-pyrazol-4-yl)phthalazin-1(2H)-one]",377 nM,
"Cn1ncc(-c2ccc3c(=O)[nH]nc(CN)c3c2)c1OCC1CC1 [Example 4-116, 4-(aminomethyl)-6-(5-(cyclopropylmethoxy)-1-methyl-1H-pyrazol-4-yl)phthalazin-1(2H)-one]",1080 nM,
"Cn1ncc(-c2ccc3c(=O)[nH]nc(CN)c3c2)c1CCc1ccccc1 [Example 4-117, 4-(aminomethyl)-6-(1-methyl-5-phenethyl-1H-pyrazol-4-yl)phthalazin-1(2H)-one]",536 nM,
"Cc1cccc(-c2c(-c3ccc4c(=O)[nH]nc(CN)c4c3)cnn2C)c1C#N [Example 4-118, 2-(4-(4-(aminomethyl)-1-oxo-1,2-dihydrophthalazin-6-yl)-1-methyl-1H-pyrazol-5-yl)-6-methylbenzonitrile]",724 nM,IC50 (PRMT5/MEP50 complex [1]; [4]): 9920 nM
"Cn1ncc(-c2ccc3c(=O)[nH]nc(CN)c3c2)c1-c1cccc(Cl)c1C#N [Example 4-119, 2-(4-(4-(aminomethyl)-1-oxo-1,2-dihydrophthalazin-6-yl)-1-methyl-1H-pyrazol-5-yl)-6-chlorobenzonitrile]",441 nM,IC50 (PRMT5/MEP50 complex [1]; [4]): 5260 nM
"Cn1ncc(-c2ccc3c(=O)[nH]nc(CN)c3c2)c1-c1cccc[n+]1[O-] [Example 4-120, 2-(4-(4-(aminomethyl)-1-oxo-1,2-dihydrophthalazin-6-yl)-1-methyl-1H-pyrazol-5-yl)pyridine 1-oxide]",> 10000 nM,
"NCc1n[nH]c(=O)c2ccc(-c3cncc(Oc4cccc5cccnc45)c3)cc12 [Example 4-121, 4-(aminomethyl)-6-(5-(quinolin-8-yloxy)pyridin-3-yl)phthalazin-1(2H)-one]",177 nM,
"CN(c1cncc(-c2ccc3c(=O)[nH]nc(CN)c3c2)c1)c1cccc2cccnc12 [Example 4-122, 4-(aminomethyl)-6-(5-(methyl(quinolin-8-yl)amino)pyridin-3-yl)phthalazin-1(2H)-one]",3820 nM,
"CCc1cccc(-c2c(-c3ccc4c(=O)[nH]nc(CN)c4c3)cnn2C)c1C#N [Example 4-123, 2-(4-(4-(aminomethyl)-1-oxo-1,2-dihydrophthalazin-6-yl)-1-methyl-1H-pyrazol-5-yl)-6-ethylbenzonitrile]",549 nM,
"CCc1ccc(-c2c(-c3ccc4c(=O)[nH]nc(CN)c4c3)cnn2C)c(C#N)c1 [Example 4-124, 2-(4-(4-(aminomethyl)-1-oxo-1,2-dihydrophthalazin-6-yl)-1-methyl-1H-pyrazol-5-yl)-5-ethylbenzonitrile]",826 nM,
"CCc1ccc(C#N)c(-c2c(-c3ccc4c(=O)[nH]nc(CN)c4c3)cnn2C)c1 [Example 4-125, 2-(4-(4-(aminomethyl)-1-oxo-1,2-dihydrophthalazin-6-yl)-1-methyl-1H-pyrazol-5-yl)-4-ethylbenzonitrile]",1000 nM,
"Cn1ncc(-c2ccc3c(=O)[nH]nc(CN)c3c2)c1-c1ccc(C2CC2)cc1C#N [Example 4-126, 2-(4-(4-(aminomethyl)-1-oxo-1,2-dihydrophthalazin-6-yl)-1-methyl-1H-pyrazol-5-yl)-5-cyclopropylbenzonitrile]",361 nM,
"COc1cc(C#N)c(-c2c(-c3ccc4c(=O)[nH]nc(CN)c4c3)cnn2C)cc1Cl [Example 4-133, 2-(4-(4-(aminomethyl)-1-oxo-1,2-dihydrophthalazin-6-yl)-1-methyl-1H-pyrazol-5-yl)-4-chloro-5-methoxybenzonitrile]",1570 nM,
"CCc1ccc(-c2c(-c3ccc4c(=O)[nH]nc(CN)c4c3)cnn2C)cc1 [Example 4-134, 4-(aminomethyl)-6-(5-(4-ethylphenyl)-1-methyl-1H-pyrazol-4-yl)phthalazin-1(2H)-one]",2730 nM,
"Cn1ncc(-c2ccc3c(=O)[nH]nc(CN)c3c2)c1-c1ccc(OC2CC2)cc1 [Example 4-136, 4-(aminomethyl)-6-(5-(4-cyclopropoxyphenyl)-1-methyl-1H-pyrazol-4-yl)phthalazin-1(2H)-one]",872 nM,
"Cn1ncc(-c2ccc3c(=O)[nH]nc(CN)c3c2)c1-c1ccc(OC2CCC2)cc1 [Example 4-138, 4-(aminomethyl)-6-(5-(4-cyclobutoxyphenyl)-1-methyl-1H-pyrazol-4-yl)phthalazin-1(2H)-one]",354 nM,
"Cn1ncc(-c2ccc3c(=O)[nH]nc(CN)c3c2)c1-c1ccccc1Cl [Example 4-143, 4-(aminomethyl)-6-(5-(2-chlorophenyl)-1-methyl-1H-pyrazol-4-yl)phthalazin-1(2H)-one]",1170 nM,
"Cn1ncc(-c2ccc3c(=O)[nH]nc(CN)c3c2)c1-c1c(Cl)cccc1Cl [Example 4-144, 4-(aminomethyl)-6-(5-(2,6-dichlorophenyl)-1-methyl-1H-pyrazol-4-yl)phthalazin-1(2H)-one]",454 nM,
"Cn1ncc(-c2ccc3c(=O)[nH]nc(CN)c3c2)c1-c1c(F)cccc1C#N [Example 4-152, 2-(4-(4-(aminomethyl)-1-oxo-1,2-dihydrophthalazin-6-yl)-1-methyl-1H-pyrazol-5-yl)-3-fluorobenzonitrile]",978 nM and 1910 nM,
"Cc1ccc(C#N)c(-c2cncc(-c3ccc4c(=O)[nH]nc(CN)c4c3)c2)c1 [Example 8-7, 2-(5-(4-(aminomethyl)-1-oxo-1,2-dihydrophthalazin-6-yl)pyridin-3-yl)-4-methylbenzonitrile]",,IC50 (PRMT5/MEP50 complex [2]; [5]): 33 nM; IC50 (PRMT5/MEP50 complex [2]; [4]): 931 nM
"COc1ccc(C#N)c(-c2cncc(-c3ccc4c(=O)[nH]nc(CN)c4c3)c2)c1 [Example 8-8, 2-(5-(4-(aminomethyl)-1-oxo-1,2-dihydrophthalazin-6-yl)pyridin-3-yl)-4-methoxybenzonitrile]",,IC50 (PRMT5/MEP50 complex [2]; [5]): 20 nM; IC50 (PRMT5/MEP50 complex [2]; [4]): 795 nM
"N#CCc1ccc2c(CN)n[nH]c(=O)c2c1 [Example 13-1, 2-[1-(aminomethyl)-4-oxo-3H-phthalazin-6-yl]acetonitrile]",,IC50 (PRMT5/MEP50 complex [2]; [5]): 25000 nM; IC50 (PRMT5/MEP50 complex [2]; [4]): 89600 nM
